This passage reports IC50 results from article PMC4674309 (Molecular cancer therapeutics, 2015).

In the experiment the target is IGF-IR (Homo sapiens, UniProt P08069). Briefly: Western blot of IGF-IR autophosphorylation. The experiment is classed as cell-based.

As usually defined, the IC50 is the concentration needed to halve the response being measured. Lower therefore signals inhibition by little substance.

Chain of IGF-IR (P08069 31-736): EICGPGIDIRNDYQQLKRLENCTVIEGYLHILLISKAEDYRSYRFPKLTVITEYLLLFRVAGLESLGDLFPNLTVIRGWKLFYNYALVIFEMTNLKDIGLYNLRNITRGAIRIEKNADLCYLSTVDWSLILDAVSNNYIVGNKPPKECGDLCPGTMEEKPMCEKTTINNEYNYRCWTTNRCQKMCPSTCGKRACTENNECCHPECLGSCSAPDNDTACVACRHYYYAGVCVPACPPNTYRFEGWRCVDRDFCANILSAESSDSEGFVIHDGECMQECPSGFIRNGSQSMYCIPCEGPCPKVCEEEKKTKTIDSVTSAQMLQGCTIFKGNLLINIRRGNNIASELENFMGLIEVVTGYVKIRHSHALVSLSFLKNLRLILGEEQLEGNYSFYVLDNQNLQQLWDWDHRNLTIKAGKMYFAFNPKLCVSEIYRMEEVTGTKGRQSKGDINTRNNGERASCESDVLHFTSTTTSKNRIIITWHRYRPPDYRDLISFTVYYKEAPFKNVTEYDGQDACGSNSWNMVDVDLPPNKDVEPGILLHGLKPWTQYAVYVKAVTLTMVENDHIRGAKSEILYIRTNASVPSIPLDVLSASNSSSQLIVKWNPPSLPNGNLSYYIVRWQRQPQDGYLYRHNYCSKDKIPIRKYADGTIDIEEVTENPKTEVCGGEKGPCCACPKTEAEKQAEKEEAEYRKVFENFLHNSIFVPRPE
Chain of IGF-IR (P08069 741-1367): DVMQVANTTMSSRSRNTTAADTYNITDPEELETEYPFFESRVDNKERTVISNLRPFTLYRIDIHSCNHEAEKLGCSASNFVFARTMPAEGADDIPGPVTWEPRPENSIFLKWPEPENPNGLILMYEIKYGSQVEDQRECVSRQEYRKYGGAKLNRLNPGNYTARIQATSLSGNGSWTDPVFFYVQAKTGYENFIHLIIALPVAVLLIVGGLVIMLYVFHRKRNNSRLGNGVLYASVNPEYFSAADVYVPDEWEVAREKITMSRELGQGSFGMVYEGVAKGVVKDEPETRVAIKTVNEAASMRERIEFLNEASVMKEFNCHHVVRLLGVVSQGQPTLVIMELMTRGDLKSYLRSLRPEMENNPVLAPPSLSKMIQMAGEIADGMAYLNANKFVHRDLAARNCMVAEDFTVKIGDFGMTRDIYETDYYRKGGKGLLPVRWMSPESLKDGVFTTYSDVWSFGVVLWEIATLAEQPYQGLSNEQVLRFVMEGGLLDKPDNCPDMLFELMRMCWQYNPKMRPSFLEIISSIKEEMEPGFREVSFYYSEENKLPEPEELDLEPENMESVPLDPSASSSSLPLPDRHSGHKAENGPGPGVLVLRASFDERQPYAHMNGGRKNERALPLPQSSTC

`Cc1ccsc1C(=O)Nc1cc(CN2CCN(C(=O)CO)CC2)ccc1/C=C/c1n[nH]c2ccccc12` [KW-2450] came in with a half-inhibitory concentration (IC50) of less than 2 nM.
